Like-named read-outs stand apart in the source and are kept apart here. Blank lines part the entries; values can stand above or below the molecule they belong to.
How the values were obtained:
[1] = system: P-P70S6K (T389); test: Cell based AlphaLISA assay, inhibition of P-P70S6K (T389) (mTORC1 substrate phosphorylation) in MDA-MB-468 cells; details: Homo sapiens, 4 h, AlphaLISA, two to four hours at 37° C., read-out: pIC50 for Inhibition of mTORC1 and mTORC2 Substrate Phosphorylation, P-P70S6K-(T389) (converted)
Outline: (§1)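 Compound incubation stopped by buffer removal plus kit lysis buffer; lysates processed per kit protocol; Alpha signal read in duplicate. IC50: normalized regression fit, control-based normalization.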

[2] = system: P-4E-BP1 (T37/46); test: Cell based AlphaLISA assay, inhibition of P-4E-BP1 (T37/46) (mTORC1 substrate phosphorylation) in MDA-MB-468 cells; details: Homo sapiens, AlphaLISA, two to four hours at 37° C., read-out: pIC50 for Inhibition of mTORC1 and mTORC2 Substrate Phosphorylation, P-4E-BP1-(T37/46) (converted)
Outline: as §1

[3] = system: P-Akt (S473); test: Cell based AlphaLISA assay, inhibition of P-Akt (S473) (mTORC2 substrate phosphorylation) in MDA-MB-468 cells; details: Homo sapiens, AlphaLISA, two to four hours at 37° C., read-out: pIC50 for Inhibition of mTORC1 and mTORC2 Substrate Phosphorylation, p-AKT 1/2/3 -(S473) (converted)
Outline: as §1

IC50 [1]: < 1 nM | IC50 ([2]; MDA-MB-468, 4 h): > 1000 nM | IC50 ([3]; MDA-MB-468, 4 h): > 1000 nM
SMILES: CO[C@H]1C[C@@H]2CC[C@@H](C)[C@@](O)(O2)C(=O)C(=O)N2CCCC[C@H]2C(=O)O[C@H]([C@H](C)C[C@@H]2CC[C@@H](OCCCCc3cn(CCOCCOCCOCCOCCOCCOCCC(=O)NCCCCn4ncc5c(N)ncnc54)nn3)[C@H](OC)C2)CC(=O)[C@H](C)/C=C(\C)[C@@H](O)[C@@H](OC)C(=O)[C@H](C)C[C@H](C)/C=C/C=C/C=C/1C [Example 6]

SMILES: CO[C@H]1C[C@@H]2CC[C@@H](C)[C@@](O)(O2)C(=O)C(=O)N2CCCC[C@H]2C(=O)O[C@H]([C@H](C)C[C@@H]2CC[C@H](n3cc(COCCOCCOCCOCCOCCOCCOCCOCCOCCOCCC(=O)NCCCCn4nc(-c5cc6cc(O)ccc6[nH]5)c5c(N)ncnc54)nn3)[C@H](OC)C2)CC(=O)[C@H](C)/C=C(\C)[C@@H](O)[C@@H](OC)C(=O)[C@H](C)C[C@H](C)/C=C/C=C/C=C/1C [Example 196]
IC50 [1]: 1 to 10 nM | IC50 ([2]; MDA-MB-468, 4 h): 3.16 to 31.6 nM | IC50 ([3]; MDA-MB-468, 4 h): 31.6 to 1000 nM

SMILES: CO[C@H]1C[C@@H]2CC[C@@H](C)[C@@](O)(O2)C(=O)C(=O)N2CCCC[C@H]2C(=O)O[C@H]([C@H](C)C[C@@H]2CC[C@H](n3cc(COC(=O)NCCOCCOCCOCCC(=O)NCCOCCOCCOCCC(=O)NCCCCn4nc(-c5ccc6oc(N)nc6c5)c5c(N)ncnc54)nn3)[C@H](OC)C2)C/C(=N/OC(C)(C)C)[C@H](C)/C=C(\C)[C@@H](O)[C@@H](OC)C(=O)[C@H](C)C[C@H](C)/C=C/C=C/C=C/1C [Example 160]
IC50 [1]: 10 to 1000 nM | IC50 ([2]; MDA-MB-468, 4 h): > 1000 nM | IC50 ([3]; MDA-MB-468, 4 h): 31.6 to 1000 nM

SMILES: CO[C@H]1C[C@@H]2CC[C@@H](C)[C@@](O)(O2)C(=O)C(=O)N2CCCC[C@H]2C(=O)O[C@H]([C@H](C)C[C@@H]2CC[C@@H](OCCCCc3cn(CCOCCOCCOCCOCCOCCOCCOCCOCCC(=O)NCCCCn4nc(-c5cccc(C(=O)NC6=NCCS6)c5)c5c(N)ncnc54)nn3)[C@H](OC)C2)CC(=O)[C@H](C)/C=C(\C)[C@@H](O)[C@@H](OC)C(=O)[C@H](C)C[C@H](C)/C=C/C=C/C=C/1C [Example 40]
IC50 [1]: < 1 nM | IC50 ([2]; MDA-MB-468, 4 h): < 3.16 nM | IC50 ([3]; MDA-MB-468, 4 h): 31.6 to 1000 nM

SMILES: CO[C@H]1C[C@@H]2CC[C@@H](C)[C@@](O)(O2)C(=O)C(=O)N2CCCC[C@H]2C(=O)O[C@H]([C@H](C)C[C@@H]2CC[C@@H](OCCCCc3cn(CCOCCOCCOCCOCCOCCOCCOCCOCCC(=O)N4CCC(Cn5nc(-c6ccc7oc(N)nc7c6)c6c(N)ncnc65)CC4)nn3)[C@H](OC)C2)CC(=O)[C@H](C)/C=C(\C)[C@@H](O)[C@@H](OC)C(=O)[C@H](C)C[C@H](C)/C=C/C=C/C=C/1C [Example 90]
IC50 [1]: < 1 nM | IC50 ([2]; 4 h): < 3.16 nM | IC50 ([3]; 4 h): < 3.16 nM

SMILES: CCO[C@@H]1C[C@@H]([C@H](C)C[C@@H]2CC[C@H](n3cc(COC(=O)NCCOCCOCCOCCC(=O)NCCOCCOCCC(=O)NCCCCn4nc(-c5ccc6oc(N)nc6c5)c5c(N)ncnc54)nn3)[C@H](OC)C2)OC(=O)[C@@H]2CCCCN2C(=O)C(=O)[C@]2(O)O[C@@H](CC[C@H]2C)C[C@H](OC)/C(C)=C/C=C/C=C/[C@@H](C)C[C@@H](C)C(=O)[C@H](OC)[C@H](O)/C(C)=C/[C@H]1C [Example 147]
IC50 [1]: 10 to 1000 nM | IC50 ([2]; MDA-MB-468, 4 h): 31.6 to 1000 nM | IC50 ([3]; MDA-MB-468, 4 h): > 1000 nM

SMILES: CO[C@H]1C[C@@H]2CC[C@@H](C)[C@@](O)(O2)C(=O)C(=O)N2CCCC[C@H]2C(=O)O[C@H]([C@H](C)C[C@@H]2CC[C@@H](OCc3cccc(-c4cnc(N5CCN(Cc6cn(CCOCCOCCOCCOCCC(=O)NCCCCn7nc(-c8ccc9oc(N)nc9c8)c8c(N)ncnc87)nn6)C(CO)C5)nc4)c3)[C@H](OC)C2)CC(=O)[C@H](C)/C=C(\C)[C@@H](O)[C@@H](OC)C(=O)[C@H](C)C[C@H](C)/C=C/C=C/C=C/1C (stereo partly drawn) [Example 24]
IC50 [1]: < 1 nM | IC50 ([2]; MDA-MB-468, 4 h): < 3.16 nM | IC50 ([3]; MDA-MB-468, 4 h): 3.16 to 31.6 nM

SMILES: CCO[C@@H]1C[C@@H]([C@H](C)C[C@@H]2CC[C@H](n3cc(COC(=O)NCCOCCOCCOCCC(=O)NCCOCCOCCC(=O)NCCCCn4nc(-c5cc6cc(O)ccc6[nH]5)c5c(N)ncnc54)nn3)[C@H](OC)C2)OC(=O)[C@@H]2CCCCN2C(=O)C(=O)[C@]2(O)O[C@@H](CC[C@H]2C)C[C@H](OC)/C(C)=C/C=C/C=C/[C@@H](C)C[C@@H](C)C(=O)[C@H](OC)[C@H](O)/C(C)=C/[C@H]1C [Example 148]
IC50 [1]: 10 to 1000 nM | IC50 ([2]; MDA-MB-468, 4 h): > 1000 nM | IC50 ([3]; MDA-MB-468, 4 h): > 1000 nM

IC50 [1]: < 1 nM | IC50 ([2]; MDA-MB-468, 4 h): < 3.16 nM | IC50 ([3]; MDA-MB-468, 4 h): < 3.16 nM
SMILES: CO[C@H]1C[C@@H]2CC[C@@H](C)[C@@](O)(O2)C(=O)C(=O)N2CCCC[C@H]2C(=O)O[C@H]([C@H](C)C[C@@H]2CC[C@@H](OCCCCc3cn(CCOCCOCCOCCOCCOCCOCCC(=O)N4CCN(c5ccc(-n6c(=O)ccc7cnc8ccc(-c9cnc%10ccccc%10c9)cc8c76)cc5C(F)(F)F)CC4)nn3)[C@H](OC)C2)CC(=O)[C@H](C)/C=C(\C)[C@@H](O)[C@@H](OC)C(=O)[C@H](C)C[C@H](C)/C=C/C=C/C=C/1C [Example 67]

SMILES: COC(=O)NC1C[C@@H]2CC[C@@H](C)[C@@](O)(O2)C(=O)C(=O)N2CCCC[C@H]2C(=O)O[C@H]([C@H](C)C[C@@H]2CC[C@@H](OCCCCc3cn(CCOCCOCCOCCOCCOCCOCCC(=O)NCCCCn4nc(-c5ccc6oc(N)nc6c5)c5c(N)ncnc54)nn3)[C@H](OC)C2)CC(=O)[C@H](C)/C=C(\C)[C@@H](O)[C@@H](OC)C(=O)[C@H](C)C[C@H](C)/C=C/C=C/C=C/1C (stereo partly drawn) [Example 39]
IC50 [1]: 1 to 10 nM | IC50 ([2]; MDA-MB-468, 4 h): 31.6 to 1000 nM | IC50 ([3]; MDA-MB-468, 4 h): 31.6 to 1000 nM

SMILES: CO[C@H]1C[C@@H]2CC[C@@H](C)[C@@](O)(O2)C(=O)C(=O)N2CCCC[C@H]2C(=O)O[C@H]([C@H](C)C[C@@H]2CC[C@H](n3cc(CCCC(=O)N(C)CCOCCOCCOCCC(=O)N(C)CCOCCOCCC(=O)N(C)CCCCn4nc(-c5ccc6oc(N)nc6c5)c5c(N)ncnc54)nn3)[C@H](OC)C2)CC(=O)[C@H](C)/C=C(\C)[C@@H](O)[C@@H](OC)C(=O)[C@H](C)C[C@H](C)/C=C/C=C/C=C/1C [Example 180]
IC50 [1]: 1 to 10 nM | IC50 ([2]; MDA-MB-468, 4 h): > 1000 nM | IC50 ([3]; MDA-MB-468, 4 h): > 1000 nM

SMILES: CO[C@H]1C[C@@H]2CC[C@@H](C)[C@@](O)(O2)C(=O)C(=O)N2CCCC[C@H]2C(=O)O[C@H]([C@H](C)C[C@@H]2CC[C@H](n3cc(-c4cnc(N5CCN(c6ncc(C(=O)NCCOCCOCCOCCOCCC(=O)N7CCc8cc(Cn9nc(-c%10ccc%11oc(N)nc%11c%10)c%10c(N)ncnc%109)ccc8C7)cn6)CC5)nc4)nn3)[C@H](OC)C2)CC(=O)[C@H](C)/C=C(\C)[C@@H](O)[C@@H](OC)C(=O)[C@H](C)C[C@H](C)/C=C/C=C/C=C/1C [Example 117]
IC50 [1]: < 1 nM | IC50 ([2]; MDA-MB-468, 4 h): > 1000 nM | IC50 ([3]; MDA-MB-468, 4 h): > 1000 nM

SMILES: CO[C@H]1C[C@@H]2CC[C@@H](C)[C@@](O)(O2)C(=O)C(=O)N2CCCC[C@H]2C(=O)O[C@H]([C@H](C)C[C@@H]2CC[C@@H](O)[C@H](OC)C2)C[C@@H](O)[C@H](C)/C=C(\C)[C@@H](O)[C@@H](OC)C(=NOCc2cn(-c3cnc(N4CCN(c5ncc(C(=O)NCCOCCOCCOCCC(=O)NCCCCn6nc(-c7ccc8oc(N)nc8c7)c7c(N)ncnc76)cn5)CC4)nc3)nn2)[C@H](C)C[C@H](C)/C=C/C=C/C=C/1C [Example 193]
IC50 [1]: < 1 nM | IC50 ([2]; MDA-MB-468, 4 h): 3.16 to 31.6 nM | IC50 ([3]; MDA-MB-468, 4 h): > 1000 nM

SMILES: CO[C@H]1C[C@@H]2CC[C@@H](C)[C@@](O)(O2)C(=O)C(=O)N2CCCC[C@H]2C(=O)O[C@H]([C@H](C)C[C@@H]2CC[C@H](n3cc(CCCC(=O)NCCOCCOCCOCCC(=O)NCCOCCOCCOCCOCCC(=O)NCCCCn4nc(-c5ccc6oc(N)nc6c5)c5c(N)ncnc54)nn3)[C@H](OC)C2)CC(=O)[C@H](C)/C=C(\C)[C@@H](O)[C@@H](OC)C(=O)[C@H](C)C[C@H](C)/C=C/C=C/C=C/1C [Example 132]
IC50 [1]: 1 to 10 nM | IC50 ([2]; MDA-MB-468, 4 h): 3.16 to 31.6 nM | IC50 ([3]; MDA-MB-468, 4 h): 31.6 to 1000 nM

SMILES: CO[C@H]1C[C@@H]2CC[C@@H](C)[C@@](O)(O2)C(=O)C(=O)N2CCCC[C@H]2C(=O)O[C@H]([C@H](C)C[C@@H]2CC[C@@H](O)[C@H](OC)C2)C[C@@H](O)[C@H](C)/C=C(\C)[C@@H](O)[C@@H](OC)C(=NOCc2cn(-c3cnc(N4CCN(c5ncc(C(=O)NCCOCCOCCC(=O)NCCCCn6nc(-c7ccc8oc(N)nc8c7)c7c(N)ncnc76)cn5)CC4)nc3)nn2)[C@H](C)C[C@H](C)/C=C/C=C/C=C/1C [Example 192]
IC50 [1]: < 1 nM | IC50 ([2]; MDA-MB-468, 4 h): 3.16 to 31.6 nM | IC50 ([3]; MDA-MB-468, 4 h): > 1000 nM

SMILES: CCO[C@@H]1C[C@@H]([C@H](C)C[C@@H]2CC[C@H](n3cc(CCCC(=O)NCCOCCOCCOCCC(=O)NCCOCCOCCOCCC(=O)NCCCCn4nc(-c5cc6cc(O)ccc6[nH]5)c5c(N)ncnc54)nn3)[C@H](OC)C2)OC(=O)[C@@H]2CCCCN2C(=O)C(=O)[C@]2(O)O[C@@H](CC[C@H]2C)C[C@H](OC)/C(C)=C/C=C/C=C/[C@@H](C)C[C@@H](C)C(=O)[C@H](OC)[C@H](O)/C(C)=C/[C@H]1C [Example 168]
IC50 [1]: 10 to 1000 nM | IC50 ([2]; MDA-MB-468, 4 h): 31.6 to 1000 nM | IC50 ([3]; MDA-MB-468, 4 h): > 1000 nM

From US20230093861A1, “RAPAMYCIN ANALOGS AS MTOR INHIBITORS” (Revolution Medicines, Inc., priority 2017, published 2023)
